Like-named read-outs stand apart in the source and are kept apart here.
Columns and labels:
rgRSV224 virus = assay: Antiviral activity: rgRSV224 (GFP) replication in HeLa cells; assay type: cell-based, respiratory syncytial virus (RSV); settings: averaged data of several repeat experiments
Procedure: (§1) Black 384-well clear-bottom microtiter plates (Corning, Amsterdam, The Netherlands) were filled via acoustic drop ejection using the echo liquid handler (Labcyte, Sunnyvale, California). 200 nL of compound stock solutions (100% DMSO) were transferred to the assay plates. 9 serial 4-fold dilutions of compound were made, creating per quadrant the same compound concentration. The assay was initiated by adding 10 µL of culture medium to each well (RPMI medium without phenol red, 10% FBS-heat inactivated, 0.04% gentamycin (50 mg/mL). All addition steps are done by using a multidrop dispenser (Thermo Scientific, Erembodegem, Belgium). Next, rgRSV224 virus (MOI = 1) diluted in culture medium was added to the plates. rgRSV224 virus is an engineered virus that includes an additional GFP gene (Hallak LK, Spillmann D, Collins PL, Peeples ME. Glycosaminoglycan sulfation requirements for respiratory syncytial virus infection; Journal of virology (2000), 74(22), 10508-13) and was in-licensed from the NIH (Bethesda, MD, USA). Finally, 20 µL of a HeLa cell suspension (3,000 cells/well) were plated. Medium, virus- and mock-infected controls were included in each test. The wells contain […] DMSO per volume. Cells were incubated at 37° C. in a 5% CO2 atmosphere. Three days post-virus exposure, viral replication was quantified by measuring GFP expression in the cells by an in house developed MSM laser microscope (Tibotec, Beerse, Belgium). The EC50 was defined as the 50% inhibitory concentration for GFP expression. In parallel, compounds were incubated for three days in a set of white 384-well microtiter plates (Corning) and the cytotoxicity of compounds in HeLa cells was determined by measuring the ATP content of the cells using the ATPlite kit (Perkin Elmer, Zaventem, Belgium) according to the manufacturer’s instructions. The CC50 was defined as the 50% concentration for cytotoxicity.

[1] = Cytotoxicity in HeLa cells (ATP content, ATPlite kit); assay type: cell-based; settings: human, TOX HELA CC50
Procedure: as §1

[2] = human respiratory syncytial virus, HeLa, 72 h, read-out: RSV HELA EC50, HeLa cells, rgRSV224 MOI = 1, GFP expression three days post-virus exposure
[3] = read-out: RSV HELA EC50, HeLa cells, rgRSV224 MOI = 1, GFP expression three days post-virus exposure

Row | SMILES | EC50 (rgRSV224 virus; [2]) [nM] | CC50 at 3 days [1] [nM] | EC50 (rgRSV224 virus; [3]) [nM]
1 | COc1cc(C(=O)NCC(O)(c2nc(-c3ccc(F)cc3)cc(C(C)(C)O)c2F)C(F)(F)F)cc2cc(C)nnc12 (racemic) [compound 279, (RS)Methoxy-3-Methyl-N-(3,3,3-Trifluoro-2-(3-Fluoro-6-(4-Fluorophenyl)-4-(2-Hydroxypropan-2-yl)Pyridin-2-yl)-2-Hydroxypropyl)Cinnoline-6-Carboxamide] | 47 | 16000 | 
2 | COc1cc(C(=O)NC[C@](O)(c2cc(C(C)(C)O)c(F)c(-c3ccc(F)cc3)n2)C2CC2(C)C)cc2cc(C)nnc12 (single isomer, unassigned) [compound 294, N-((-)(2,2-dimethylcyclopropyl)(5-fluoro-6-(4-fluorophenyl)-4-(2-hydroxypropanyl)pyndmyl)hydroxyethyl)-8-methoxy-3-methylcmnoline-6-carboxamide] | 4.9 | 13000 | 
3 | COc1cc(C(=O)NC[C@@](O)(c2cc(C(C)(C)O)c(F)c(-c3ccc(F)cc3)n2)C2CC2(C)C)cc2cc(C)nnc12 (single isomer, unassigned) [compound 295, N-((+)(2,2-dimethylcyclopropyl)(5-fluoro-6-(4-fluorophenyl)-4-(2-hydroxypropanyl)pyridinyl)hydroxyethyl)-8-methoxy-3-methylcinnoline-6-carboxamide] | 180 | 12000 | 
4 | COc1cc(C(=O)NC[C@](O)(c2cc(C(C)(C)O)c(F)c(-c3ccc(F)cc3)n2)C2C[C@H]2F)cc2cc(C)nnc12 (single isomer, unassigned) [compound 300, N-((*S)(5-Fluoro-6-(4-Fluorophenyl)-4-(2-Hydroxypropanyl)Pyridinyl)((1*S,2*R)Fluorocyclopropyl)Hydroxyethyl)-8-Methoxy-3-Methylcinnoline-6-Carboxamide] | 0.7 | 27000 | 
5 | COc1cc(C(=O)NC[C@@](O)(c2cc(C(C)(C)O)c(F)c(-c3ccc(F)cc3)n2)C2C[C@@H]2F)cc2cc(C)nnc12 (single isomer, unassigned) [compound 301, N-((*R)(5-Fluoro-6-(4-Fluorophenyl)-4-(2-Hydroxypropanyl)Pyridinyl)((1*R,2*S)Fluorocyclopropyl)Hydroxyethyl)-8-Methoxy-3-Methylcinnoline-6-Carboxamide] | 336 | 22000 | 
6 | COc1cc(C(=O)NC[C@](O)(c2cc(C(C)(C)O)c(F)c(-c3ccc(F)cc3)n2)C2C[C@@H]2F)cc2cc(C)nnc12 (single isomer, unassigned) [compound 302, N-((*S)(5-Fluoro-6-(4-Fluorophenyl)-4-(2-Hydroxypropanyl)Pyridinyl)((1*S.2*S)Fluorocyclopropyl)Hydroxyethyl)-8-Methoxy-3-Methylcinnoline-6-Carboxamide] | 1.2 | > 25000 | 
7 | COc1cc(C(=O)NC[C@@](O)(c2cc(C(C)(C)O)c(F)c(-c3ccc(F)cc3)n2)C2C[C@H]2F)cc2cc(C)nnc12 (single isomer, unassigned) [compound 303, N-((*R)(5-Fluoro-6-(4-Fluorophenyl)-4-(2-Hydroxypropanyl)Pyridinyl)((l*R, 2*R)Fluorocyclopropyl)Hydroxyethyl)-8-Methoxy-3-Methylcinnoline-6-Carboxamide] | 295 | 23000 | 
8 | COc1cc(C(=O)NCC(O)(c2cc(C(C)(C)O)c(F)c(-c3ccc(F)cc3)n2)C(F)F)cc2cc(C)cnc12 (single isomer, unassigned; (+)) [compound 203, (+)-N-{3,3-Difluoro-2-[5-Fluoro-6-(4-Fluorophenyl)-4-(2-Hydroxypropan-2-yl)Pyridin-2-yl]-2-Hydroxypropyl}-8-Methoxy-3-Methylquinoline-6-Carboxamide] |  | 43000 | 480
9 | Cc1cnc2c(OC3CC3)cc(C(=O)NC[C@](O)(c3cc(C(C)(C)O)c(F)c(-c4ccc(F)cc4)n3)C(F)(F)F)cc2c1 [compound 323, (-)Cyclopropoxy-3-Methyl-N-(3,3,3-Trifluoro-2-(5-Fluoro-6-(4-Fluorophenyl)-4-(2-Hydroxypropan-2-yl)Pyridin-2-yl)-2-Hydroxypropyl)Quinoline-6-Carboxamide] |  |  | 3.8

From patent publication US20230203004A1, “RSV INHIBITING 3-SUBSTITUTED QUINOLINE AND CINNOLINE DERIVATIVES” (Janssen Sciences Ireland Unlimited Company, priority 2020, published 2023)
